Measured values taken from paper PMC12439480, “Dimeric CCK2R radiotheranostic tracers synergize with mTOR inhibition for enhanced tumor therapy” (Theranostics, 2025).
Numbered stars: 1 amine (or outer) side, 2 acyl side, 3 side chain; on linkers, the order of the positions; unused ones are H or OH. Square brackets hold non-standard residues; d marks the D form. Side chains are listed from the residue outwards. Peptide text beside a SMILES is read from it. * marks the point of attachment. DOTA = O=C(O)CN1CCN(CC(=O)O)CCN(CC(=O)*)CCN(CC(=O)O)CC1; d(γGlu) = O=C(O)[C@@H](CCC(=O)[*:2])N[*:1]; 1Nal = N[C@@H](Cc1cccc2ccccc12)C(=O)O; NMeNle = CCCC[C@H](NC)C(=O)O; PEG4 = NCCOCCOCCOCCOCCC(=O)O

Tests used:
in vivo [1] = assay: in vivo; design: species or system BALB/c nude mice; conditions: mouse; for tissue to tissue ratio at 0.5 h / tissue to tissue ratio at 1 h / tissue to tissue ratio at 2 h: female, BALB/c nude, iv, 3.7 MBq, total radioactivity
Method: To complement the imaging studies, biodistribution experiments were performed. AR42J tumor-bearing mice were intravenously injected with 3.7 MBq of [^68Ga]Ga-DOTA-CCK2R-dimer (≈ 120 pmol) or [^68Ga]Ga-DOTA-CCK-66 (≈ 210 pmol) (dissolved in 200 μL of saline; n = 3/group). The mice were sacrificed at 30, 60, and 120 min post-injection, and the tissues of interest were excised, weighed, and analyzed for radioactivity using a γ-counter. For blocking studies, a 400-fold excess of the lead compound was co-administered, and the mice were sacrificed at 1 h post-injection.
(§1) All animal studies were approved by the Ethics Committee of Fudan University
(§2) Shanghai Cancer Center (No. FUSCC-IACUC- S2023- 0003). Five-week-old female
(§3) BALB/c nude mice were purchased from Shanghai SLAC Laboratory Animal
(§4) Company. To establish cell-derived xenograft (CDX) models, 1 × 10⁶ AR42J cells
(§5) (100 μL) were subcutaneously inoculated into the right shoulder of each mouse. […]

[2] = format: physicochemical; conditions: pH 7.4
Method: The hydrophilicity of [^68Ga]Ga-DOTA-CCK2R-dimer and [^68Ga]Ga-DOTA-CCK-66 was assessed by determining their partition coefficients (Log D7.4) in a phosphate-buffered saline (PBS; pH 7.4)/n-octanol (1:1, v/v) system. Briefly, ~37 kBq of each radiotracer was mixed with 2 mL of the biphasic system, vortexed for 5 min, and centrifuged at 15,000 × g for 5 min. The radioactivity in 100 μL aliquots of each phase was quantified using a γ-counter (n = 5).

in vivo [3] = assay: in vivo; design: species or system BALB/c nude mice; conditions: female, BALB/c nude, mouse, iv, total radioactivity
Method: For the micro-positron emission tomography/computed tomography (microPET/CT) imaging study, BALB/c nude mice bearing AR42J tumors (detailed in Supplementary Methods Section S3: Mouse Models) were intravenously injected with 3.7 MBq of [^68Ga]Ga-DOTA-CCK2R-dimer (≈ 120 pmol) or [^68Ga]Ga-DOTA-CCK-66 (≈ 210 pmol) (dissolved in 200 μL of saline; n = 3/group), and microPET/CT imaging was performed at 30, 60, and 120 min post-injection. The mice were anesthetized via inhalation of an isoflurane mixture approximately 5 min before each PET/CT acquisition began. To confirm tumor-specific radiopharmaceutical uptake, blocking experiments were conducted at the 1-h time point of imaging by coinjecting the mice with the radiopharmaceutical and a 400-fold excess of the lead compound.
as §1, §2, §3, §4, §5

[4] = Tumor-to-Large intestine ratio (T/B)
[5] = Tumor-to-Small intestine ratio (T/B)

CCCC[C@@H](C(=O)N[C@@H](CC(=O)O)C(=O)N[C@@H](Cc1cccc2ccccc12)C(N)=O)N(C)C(=O)[C@H](Cc1c[nH]c2ccccc12)NC(=O)CCOCCOCCOCCOCCNC(=O)CC[C@@H](NC(=O)CC[C@H](NC(=O)CN1CCN(CC(=O)O)CCN(CC(=O)O)CCN(CC(=O)O)CC1)C(=O)N[C@H](CCC(=O)NCCOCCOCCOCCOCCC(=O)N[C@@H](Cc1c[nH]c2ccccc12)C(=O)N(C)[C@@H](CCCC)C(=O)N[C@@H](CC(=O)O)C(=O)N[C@@H](Cc1cccc2ccccc12)C(N)=O)C(=O)O)C(=O)O [[68Ga]Ga-DOTA-CCK2R-dimer, metal not drawn] ({DOTA}-E([d(γGlu)-PEG4-Trp-NMeNle-Asp-1Nal-NH2])[d(γGlu)][PEG4]W[NMeNle]D[1Nal]-NH2)
tissue to tissue ratio at 0.5 h (in vivo [1]; Tumor-to-Bladder ratio (T/B)): 7.42 ± 4.09
tissue to tissue ratio at 1 h (in vivo [1]; Tumor-to-Bladder ratio (T/B)): 8.41 ± 1.6
tissue to tissue ratio at 2 h (in vivo [1]; Tumor-to-Bladder ratio (T/B)): 40.8 ± 16.9
tissue to tissue ratio at 0.5 h (in vivo [1]; Tumor-to-Blood ratio (T/B)): 3.01 ± 1.29
tissue to tissue ratio at 1 h (in vivo [1]; Tumor-to-Blood ratio (T/B)): 6.8 ± 4.41
tissue to tissue ratio at 2 h (in vivo [1]; Tumor-to-Blood ratio (T/B)): 21.6 ± 9.41
tissue to tissue ratio at 0.5 h (in vivo [1]; Tumor-to-Bone ratio (T/B)): 19.2 ± 4.91
tissue to tissue ratio at 1 h (in vivo [1]; Tumor-to-Bone ratio (T/B)): 18.8 ± 5.04
tissue to tissue ratio at 2 h (in vivo [1]; Tumor-to-Bone ratio (T/B)): 142 ± 25
tissue to tissue ratio at 0.5 h (in vivo [1]; Tumor-to-Brain ratio (T/B)): 39.7 ± 24.6
tissue to tissue ratio at 1 h (in vivo [1]; Tumor-to-Brain ratio (T/B)): 61.8 ± 7.46
tissue to tissue ratio at 2 h (in vivo [1]; Tumor-to-Brain ratio (T/B)): 154 ± 17.5
tissue to tissue ratio at 0.5 h (in vivo [1]; Tumor-to-Heart ratio (T/B)): 5.23 ± 2.91
tissue to tissue ratio at 1 h (in vivo [1]; Tumor-to-Heart ratio (T/B)): 8.18 ± 0.91
tissue to tissue ratio at 2 h (in vivo [1]; Tumor-to-Heart ratio (T/B)): 18.5 ± 3.74
tissue to tissue ratio at 0.5 h (in vivo [1]; Tumor-to-Kidney ratio (T/B)): 1.66 ± 1.37
tissue to tissue ratio at 1 h (in vivo [1]; Tumor-to-Kidney ratio (T/B)): 1.15 ± 0.15
tissue to tissue ratio at 2 h (in vivo [1]; Tumor-to-Kidney ratio (T/B)): 1.62 ± 0.29
tissue to tissue ratio at 0.5 h (in vivo [1]; [4]): 8.98 ± 3.85
tissue to tissue ratio at 1 h (in vivo [1]; [4]): 10.5 ± 1.55
tissue to tissue ratio at 2 h (in vivo [1]; [4]): 40.2 ± 29.4
tissue to tissue ratio at 0.5 h (in vivo [1]; Tumor-to-Liver ratio (T/B)): 2.07 ± 1.51
tissue to tissue ratio at 1 h (in vivo [1]; Tumor-to-Liver ratio (T/B)): 3.05 ± 0.56
tissue to tissue ratio at 2 h (in vivo [1]; Tumor-to-Liver ratio (T/B)): 11.9 ± 4.6
tissue to tissue ratio at 0.5 h (in vivo [1]; Tumor-to-Lung ratio (T/B)): 3.34 ± 2.07
tissue to tissue ratio at 1 h (in vivo [1]; Tumor-to-Lung ratio (T/B)): 5.56 ± 2.82
tissue to tissue ratio at 2 h (in vivo [1]; Tumor-to-Lung ratio (T/B)): 19.7 ± 2.99
tissue to tissue ratio at 0.5 h (in vivo [1]; Tumor-to-Muscle ratio (T/M)): 11.8 ± 5.75
tissue to tissue ratio at 1 h (in vivo [1]; Tumor-to-Muscle ratio (T/M)): 16.5 ± 2.99
tissue to tissue ratio at 2 h (in vivo [1]; Tumor-to-Muscle ratio (T/M)): 33 ± 7.91
tissue to tissue ratio at 0.5 h (in vivo [1]; [5]): 7.72 ± 2.49
tissue to tissue ratio at 1 h (in vivo [1]; [5]): 8.04 ± 2.02
tissue to tissue ratio at 2 h (in vivo [1]; [5]): 26 ± 11.9
tissue to tissue ratio at 0.5 h (in vivo [1]; Tumor-to-Spleen ratio (T/B)): 7.04 ± 3.92
tissue to tissue ratio at 1 h (in vivo [1]; Tumor-to-Spleen ratio (T/B)): 12.6 ± 2
tissue to tissue ratio at 2 h (in vivo [1]; Tumor-to-Spleen ratio (T/B)): 39.4 ± 7.6
tissue to tissue ratio at 0.5 h (in vivo [1]; Tumor-to-Stomach ratio (T/B)): 4.5 ± 3.7
tissue to tissue ratio at 1 h (in vivo [1]; Tumor-to-Stomach ratio (T/B)): 5.93 ± 0.89
tissue to tissue ratio at 2 h (in vivo [1]; Tumor-to-Stomach ratio (T/B)): 10.5 ± 2.83
tissue uptake at 0.5 h (in vivo [1]; Bladder uptake): 0.97 ± 0.52 %ID/g
tissue uptake at 1 h (in vivo [1]; Bladder uptake): 1.59 ± 0.58 %ID/g
tissue uptake at 2 h (in vivo [1]; Bladder uptake): 0.53 ± 0.15 %ID/g
tissue uptake at 0.5 h (in vivo [1]; Blood uptake): 2.25 ± 1.2 %ID/g
tissue uptake at 2 h (in vivo [1]; Blood uptake): 1.56 ± 0.97 %ID/g
tissue uptake at 0.5 h (in vivo [1]; Bone uptake): 0.78 ± 0.48 %ID/g
tissue uptake at 2 h (in vivo [1]; Bone uptake): 0.22 ± 0.18 %ID/g
tissue uptake at 0.5 h (in vivo [1]; Brain uptake): 0.17 ± 0.07 %ID/g
tissue uptake at 2 h (in vivo [1]; Brain uptake): 0.06 ± 0.04 %ID/g
tissue uptake at 0.5 h (in vivo [1]; Heart uptake): 1.26 ± 0.44 %ID/g
tissue uptake at 2 h (in vivo [1]; Heart uptake): 1.14 ± 0.39 %ID/g
tissue uptake at 0.5 h (in vivo [1]; Kidney uptake): 5.24 ± 3.64 %ID/g
tissue uptake at 1 h (in vivo [1]; Kidney uptake): 11.2 ± 1.84 %ID/g
tissue uptake at 2 h (in vivo [1]; Kidney uptake): 12.7 ± 3.23 %ID/g
tissue uptake at 0.5 h (in vivo [1]; Large intestine uptake): 1.38 ± 1.37 %ID/g
tissue uptake at 2 h (in vivo [1]; Large intestine uptake): 0.67 ± 0.34 %ID/g
tissue uptake at 0.5 h (in vivo [1]; Liver uptake): 3.45 ± 1.37 %ID/g
tissue uptake at 1 h (in vivo [1]; Liver uptake): 4.24 ± 0.47 %ID/g
tissue uptake at 2 h (in vivo [1]; Liver uptake): 2.01 ± 1.19 %ID/g
tissue uptake at 0.5 h (in vivo [1]; Lung uptake): 2.01 ± 0.71 %ID/g
tissue uptake at 2 h (in vivo [1]; Lung uptake): 1.02 ± 0.01 %ID/g
tissue uptake at 0.5 h (in vivo [1]; Muscle uptake): 0.57 ± 0.24 %ID/g
tissue uptake at 2 h (in vivo [1]; Muscle uptake): 0.62 ± 0.19 %ID/g
tissue uptake at 0.5 h (in vivo [1]; Small intestine uptake): 1.48 ± 0.73 %ID/g
tissue uptake at 2 h (in vivo [1]; Small intestine uptake): 0.86 ± 0.32 %ID/g
tissue uptake at 0.5 h (in vivo [1]; Spleen uptake): 0.96 ± 0.4 %ID/g
tissue uptake at 2 h (in vivo [1]; Spleen uptake): 0.52 ± 0.05 %ID/g
tissue uptake at 0.5 h (in vivo [1]; Stomach uptake): 1.11 ± 0.59 %ID/g
tissue uptake at 2 h (in vivo [1]; Stomach uptake): 1.97 ± 0.39 %ID/g
tissue uptake at 0.5 h (in vivo [1]; Tumor uptake): 5.81 ± 1.83 %ID/g
tissue uptake at 2 h (in vivo [1]; Tumor uptake): 20.2 ± 3.31 %ID/g
logD [2]: -3.01 ± 0.05
tissue uptake at 0.5 h (in vivo [3]; 3.7 MBq): 22.6 ± 0.32 %ID/g
tissue uptake at 1 h (in vivo [3]; 3.7 MBq): 23.9 ± 2.12 %ID/g
tissue uptake at 2 h (in vivo [3]; 3.7 MBq): 26.1 ± 6.21 %ID/g
tissue uptake at 1 h (in vivo [3]): 10.9 ± 1.73 %ID/g
